Columns and labels:
[1] = wn = mass fraction of the nth substance listed; conditions: 101 kPa, Liquid; for viscosity: Concentric cylinders viscometry; for mass density: Vibrating tube method
[2] = refractive index (Na D-line) (dimensionless); wn = mass fraction of the nth substance listed; conditions: 101 kPa, Liquid, Standard Abbe refractometry

CC(O)CN (stereo not given) [1-amino-2-propanol] + O
Conditions | mass density, [1] [kg/m3] | refractive index, [2] | viscosity, [1] [mPa·s]
298.15 K, w1 = 0.05 | 998.574 | 1.33891 | 1.088
298.15 K, w1 = 0.1 | 999.182 | 1.34586 | 1.296
298.15 K, w1 = 0.15 | 999.932 | 1.35281 | 1.569
298.15 K, w1 = 0.2 | 1001.03 | 1.35955 | 1.944
298.15 K, w1 = 0.25 | 1002.46 | 1.36649 | 2.444
303.15 K, w1 = 0.05 | 997.087 | 1.33825 | 0.9733
303.15 K, w1 = 0.1 | 997.57 | 1.34506 | 1.148
303.15 K, w1 = 0.15 | 998.142 | 1.35201 | 1.372
303.15 K, w1 = 0.2 | 999.018 | 1.35875 | 1.678
303.15 K, w1 = 0.25 | 1000.2 | 1.3656 | 2.083
308.15 K, w1 = 0.05 | 995.386 | 1.33749 | 0.8761
308.15 K, w1 = 0.1 | 995.747 | 1.34432 | 1.027
308.15 K, w1 = 0.15 | 996.159 | 1.35092 | 1.215
308.15 K, w1 = 0.2 | 996.833 | 1.35767 | 1.468
308.15 K, w1 = 0.25 | 997.78 | 1.36461 | 1.799
313.15 K, w1 = 0.05 | 993.483 | 1.33668 | 0.7937
313.15 K, w1 = 0.1 | 993.738 | 1.34343 | 0.9275
313.15 K, w1 = 0.15 | 994.005 | 1.35012 | 1.084
313.15 K, w1 = 0.2 | 994.489 | 1.35672 | 1.295
313.15 K, w1 = 0.25 | 995.218 | 1.36347 | 1.574
318.15 K, w1 = 0.05 | 991.399 | 1.33578 | 0.7225
318.15 K, w1 = 0.1 | 991.552 | 1.34259 | 0.8362
318.15 K, w1 = 0.15 | 991.681 | 1.34908 | 0.9756
318.15 K, w1 = 0.2 | 991.989 | 1.35573 | 1.155
318.15 K, w1 = 0.25 | 992.514 | 1.36228 | 1.384
323.15 K, w1 = 0.05 | 989.143 | 1.33483 | 0.6617
323.15 K, w1 = 0.1 | 989.197 | 1.34154 | 0.7617
323.15 K, w1 = 0.15 | 989.197 | 1.34799 | 0.8864
323.15 K, w1 = 0.2 | 989.338 | 1.35454 | 1.039
323.15 K, w1 = 0.25 | 989.679 | 1.36109 | 1.231
328.15 K, w1 = 0.05 | 986.722 | 1.33384 | 0.6112
328.15 K, w1 = 0.1 | 986.682 | 1.3405 | 0.6988
328.15 K, w1 = 0.15 | 986.564 | 1.34705 | 0.8113
328.15 K, w1 = 0.2 | 986.546 | 1.3533 | 0.943
328.15 K, w1 = 0.25 | 986.711 | 1.35985 | 1.102
333.15 K, w1 = 0.05 | 984.143 | 1.3328 | 0.5696
333.15 K, w1 = 0.1 | 984.015 | 1.33936 | 0.647
333.15 K, w1 = 0.15 | 983.779 | 1.34581 | 0.75
333.15 K, w1 = 0.2 | 983.615 | 1.35211 | 0.8659
333.15 K, w1 = 0.25 | 983.616 | 1.35861 | 0.9934
338.15 K, w1 = 0.05 | 981.41 | 1.33173 | 0.5381
338.15 K, w1 = 0.1 | 981.198 | 1.33832 | 0.6053
338.15 K, w1 = 0.15 | 980.853 | 1.34462 | 0.6919
338.15 K, w1 = 0.2 | 980.549 | 1.35092 | 0.8
338.15 K, w1 = 0.25 | 980.398 | 1.35753 | 0.9015
343.15 K, w1 = 0.05 | 978.537 | 1.33057 | 0.5152
343.15 K, w1 = 0.1 | 978.237 | 1.33713 | 0.5701
343.15 K, w1 = 0.15 | 977.785 | 1.34343 | 0.6478
343.15 K, w1 = 0.2 | 977.354 | 1.34968 | 0.7408
343.15 K, w1 = 0.25 | 977.059 | 1.35614 | 0.8266

Reference: the NIST ThermoML archive (doi:10.1021/je300938w)
